Results reported in US20110245340A1, “Screening Method for Identifying Patients at Risk of Adverse Hepatologic Events” (priority 2009, published 2011).

Experiments:
[1] = Hepatic events in combined dataset of type 2 diabetes mellitus patients using the risk identification tool (exclusion by ApoA1 > ULN or ALT > 2X ULN); format: in vivo, human; conditions: for Percent of Hepatic Events: of 14 events
Source text: As noted in Example 2, hepatic events in the sample populations were distributed 71% (17/24) for AGI-1067 treated patients and 29% (7/24) for patients receiving placebo resulting in an AGI-1067 to placebo ratio of 2.4.
There were 14 patients in the combined dataset who had hepatic events using the ALT >5× ULN plus TBL <2× ULN or ALT >3× ULN plus TBL >2× ULN criteria. As noted in Example 2, at randomization the ratio of AGI-1067 to placebo patients was 1.3, the same value as the randomization ratio for AGI-1067 compared to placebo.
When patients with elevated ApoA1 levels or ALT levels of greater than 2.0 times ULN were excluded, 10 hepatic events were eliminated. Of these, 90% were in the AGI-1067 treatment arm. Of the remaining 14 hepatic events, 8 were in AGI-1067 treated patients while 6 were in placebo treated patients. These hepatic events were distributed 57% (8/14) for AGI-1067 patients and 43% (6/14) for patients receiving placebo.
Table 4 summarizes the impact of the exclusionary criteria (primarily ApoA1 elevation) on the number, frequency distribution and ratio of hepatic events for the AGI-1067 and placebo groups in the 3270 type 2 diabetes mellitus patients contained in the datasets.
ALT >2× ULN could also be used as a secondary indicator for exclusion of patients.

[2] = Large clinical study (more than 6000 pts, 2 year average exposure) in patients with pre-existing coronary artery disease; format: in vivo
[3] = Hepatic events / ALT elevations in combined dataset of diabetes mellitus patients, before use of the risk identification tool; format: in vivo, human; conditions: for Number of Patients ALT 3X to ≦ 5X ULN With TBL ≦ 2X ULN: diabetes patients; for Percent of Hepatic Events: of 24 events
Experimental: Analyses were conducted to identify potential risk factors for drug-induced liver toxicity in clinical studies of the monosuccinic acid ester of probucol (AGI-1067). AGI-1067 represents a new class of therapies targeting certain chronic diseases such as type II diabetes mellitus and atherosclerosis. AGI-1067 functions both as a direct antioxidant and an inducer of endogenous, antioxidant processes such as hemeoxygenase-1 and thioredoxin.
There were 36 patients who had peak elevations of ATL between 3× and ≦5× ULN in the combined dataset of diabetes mellitus patients. […] ALT levels therefore appear to have limited value in assessing potential for hepatotoxicity.
There were 24 diabetes patients in the combined dataset who had hepatic events as using a criteria of either ALT >5× ULN plus TBL <2× ULN or ALT >3× ULN plus TBL >2× ULN criteria. At randomization, 57% of the patients were in the AGI-1067 arm and 43% were in the placebo arm resulting in an AGI-1067 to placebo ratio of 1.3. Of the 24 hepatic events, 17 occurred in AGI-1067 treated patients and 7 occurred in placebo treated patients. […]

[4] = in vivo; cited from earlier work
[5] = using the risk identification tool, 75 mg
[6] = using the risk identification tool, 150 mg
[7] = using the risk identification tool, 300 mg
[8] = using the risk identification tool, AGI-1067 all doses
[9] = before use of the risk identification tool, 75 mg
[10] = before use of the risk identification tool, 150 mg
[11] = before use of the risk identification tool, 300 mg
[12] = before use of the risk identification tool, AGI-1067 all doses

CC(C)(Sc1cc(C(C)(C)C)c(O)c(C(C)(C)C)c1)Sc1cc(C(C)(C)C)c(OC(=O)CCC(=O)O)c(C(C)(C)C)c1 [AGI-1067, monosuccinic acid ester of probucol]
Incidence of hepatic events after application of the exclusionary criteria ([1]; 8/1851 patients): 0.4% | Decrease (↓) of total number of hepatic events by using the risk identification tool ([1]; AGI-1067 all doses, versus before use of the tool): 53% | Excluded hepatic events relative to placebo patients using Baseline ApoA1 as predictive biomarker ([1]; Baseline ApoA1): seven times more excluded hepatic events | Number of Hepatic Events Excluded ([1]; Totals of all biomarkers): 9 | Number of Hepatic Events Excluded ([1]; biomarker Apo A1 > 165 mg/dl): 7 | Number of Hepatic Events Excluded ([1]; biomarker Baseline ALT > 2X ULN): 1 | Number of Hepatic Events Excluded ([1]; biomarker Month 1 ALT > 2X ULN): 1 | Share of the 10 eliminated hepatic events that were in the AGI-1067 treatment arm ([1]; exclusion of elevated ApoA1 or ALT > 2.0 times ULN): 90% | Number of hepatic events versus placebo arm after excluding patients with ApoA1 above ULN (165 mg/dl) before drug ([1]; human, in vivo): achieved parity | Ratio 1067/Placebo Hepatic Events ([1]; using the risk identification tool): 1.3 | Number of Hepatic Events ALT > 3X ULN Plus TBL > 2X ULN [1, 5]: 0 | Number of Hepatic Events ALT > 5X ULN With TBL ≦ 2X ULN [1, 5]: 2 | Number of Hepatic Events Total [1, 5]: 2 | Percent of Hepatic Events [1, 5]: 14% | Number of Hepatic Events ALT > 3X ULN Plus TBL > 2X ULN [1, 6]: 0 | Number of Hepatic Events ALT > 5X ULN With TBL ≦ 2X ULN [1, 6]: 1 | Number of Hepatic Events Total [1, 6]: 1 | Percent of Hepatic Events [1, 6]: 7% | Number of Hepatic Events ALT > 3X ULN Plus TBL > 2X ULN [1, 7]: 2 | Number of Hepatic Events ALT > 5X ULN With TBL ≦ 2X ULN [1, 7]: 3 | Number of Hepatic Events Total [1, 7]: 5 | Percent of Hepatic Events [1, 7]: 36% | Number of Hepatic Events ALT > 3X ULN Plus TBL > 2X ULN [1, 8]: 2 | Number of Hepatic Events ALT > 5X ULN With TBL ≦ 2X ULN [1, 8]: 6 | Number of Hepatic Events Total [1, 8]: 8 | Percent of Hepatic Events [1, 8]: 57% | Number of patients demonstrating elevated ALT and bilirubin ([2]; of 3078 patients randomized to AGI-1067, four in the placebo arm): eight | HbA1c levels ([2]; subset of patients with type 2 diabetes mellitus): lower HbA1c levels | Hard cardiovascular endpoints (composite of cardiovascular death, non-fatal MI and non-fatal stroke) ([2]; well-treated patients with pre-existing coronary artery disease): reduce hard cardiovascular endpoints | Number of Patients ALT 3X to ≦ 5X ULN With TBL ≦ 2X ULN ([3]; 75 mg): 3 | Percent of ALT Elevations ([3]; 75 mg, share of 36 patients): 8% | Number of Patients ALT 3X to ≦ 5X ULN With TBL ≦ 2X ULN ([3]; 150 mg): 4 | Percent of ALT Elevations ([3]; 150 mg, share of 36 patients): 11% | Number of Patients ALT 3X to ≦ 5X ULN With TBL ≦ 2X ULN ([3]; 300 mg): 10 | Percent of ALT Elevations ([3]; 300 mg, share of 36 patients): 28% | Number of Patients ALT 3X to ≦ 5X ULN With TBL ≦ 2X ULN ([3]; AGI-1067 all doses): 17 | Percent of ALT Elevations ([3]; AGI-1067 all doses, share of 36 patients with ALT 3X to ≦5X ULN): 47% | Ratio 1067/Placebo Hepatic Events ([3]; before use of the risk identification tool): 2.4 | Number of Hepatic Events ALT > 3X ULN Plus TBL > 2X ULN [3, 9]: 0 | Number of Hepatic Events ALT > 5X ULN With TBL ≦ 2X ULN [3, 9]: 4 | Number of Hepatic Events Total [3, 9]: 4 | Percent of Hepatic Events [3, 9]: 17% | Number of Hepatic Events ALT > 3X ULN Plus TBL > 2X ULN [3, 10]: 0 | Number of Hepatic Events ALT > 5X ULN With TBL ≦ 2X ULN [3, 10]: 2 | Number of Hepatic Events Total [3, 10]: 2 | Percent of Hepatic Events [3, 10]: 8% | Number of Hepatic Events ALT > 3X ULN Plus TBL > 2X ULN [3, 11]: 4 | Number of Hepatic Events ALT > 5X ULN With TBL ≦ 2X ULN [3, 11]: 7 | Number of Hepatic Events Total [3, 11]: 11 | Percent of Hepatic Events [3, 11]: 46% | Number of Hepatic Events ALT > 3X ULN Plus TBL > 2X ULN [3, 12]: 4 | Number of Hepatic Events ALT > 5X ULN With TBL ≦ 2X ULN [3, 12]: 13 | Number of Hepatic Events Total [3, 12]: 17 | Percent of Hepatic Events [3, 12]: 71% | Incidence of ALT elevations 3X to ≦5X ULN versus placebo ([3]; diabetes mellitus patients): comparable

NNC(=O)c1ccncc1 [isoniazid]
Serious hepatotoxicity, share of recipients [4]: about 0.1%
